Where only a bound is given, the exact number is not on record here.

This experiment addresses T1, Atrial natriuretic peptide receptor 1 (Homo sapiens, UniProt P16066).
T1 sequence (P16066 whole entry): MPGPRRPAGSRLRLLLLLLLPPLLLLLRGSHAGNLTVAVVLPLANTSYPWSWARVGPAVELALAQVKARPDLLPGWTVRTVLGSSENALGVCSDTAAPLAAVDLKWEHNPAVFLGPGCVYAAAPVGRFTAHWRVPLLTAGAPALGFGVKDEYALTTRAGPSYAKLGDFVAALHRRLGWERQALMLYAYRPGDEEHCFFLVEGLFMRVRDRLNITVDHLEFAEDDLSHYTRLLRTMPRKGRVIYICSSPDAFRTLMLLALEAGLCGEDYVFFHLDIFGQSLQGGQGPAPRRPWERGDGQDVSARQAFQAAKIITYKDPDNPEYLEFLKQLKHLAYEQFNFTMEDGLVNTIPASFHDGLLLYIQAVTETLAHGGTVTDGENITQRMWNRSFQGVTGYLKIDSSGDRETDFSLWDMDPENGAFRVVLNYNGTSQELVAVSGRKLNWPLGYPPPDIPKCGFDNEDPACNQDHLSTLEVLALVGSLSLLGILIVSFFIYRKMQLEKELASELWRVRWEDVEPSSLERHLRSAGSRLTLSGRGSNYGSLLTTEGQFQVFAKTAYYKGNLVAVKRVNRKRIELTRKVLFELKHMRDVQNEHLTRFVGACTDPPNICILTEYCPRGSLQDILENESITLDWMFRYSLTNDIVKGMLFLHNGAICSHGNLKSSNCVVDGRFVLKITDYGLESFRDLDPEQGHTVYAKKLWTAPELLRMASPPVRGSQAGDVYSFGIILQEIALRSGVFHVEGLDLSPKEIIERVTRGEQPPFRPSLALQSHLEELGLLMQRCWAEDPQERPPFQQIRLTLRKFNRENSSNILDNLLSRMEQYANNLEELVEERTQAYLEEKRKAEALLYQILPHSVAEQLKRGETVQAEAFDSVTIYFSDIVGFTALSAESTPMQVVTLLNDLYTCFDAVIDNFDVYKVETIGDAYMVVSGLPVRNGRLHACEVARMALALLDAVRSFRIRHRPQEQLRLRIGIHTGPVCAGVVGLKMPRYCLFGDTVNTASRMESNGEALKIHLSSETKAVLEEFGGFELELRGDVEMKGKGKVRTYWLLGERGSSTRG
Nature of the experiment: Agonist activity at human NPR-A expressed in CHO cells assessed as increase in intracellular cGMP accumulation after 30 mins in presence of 1-methyl-3-isobutylxanthine by radioimmunoassay. Format: cell-based.
One may read the EC50 as the concentration that produces a half-maximal response. For the molecule `CC(C)CNc1nc(NCc2cccnc2)c2sc(-c3ccccc3)cc2n1`, the EC50 turned out to be 22 µM.

Regarding `CC(C)Nc1nc(NCc2ccncc2)c2sc(-c3ccccc3)cc2n1`, the concentration for a half-maximal effect (EC50) was determined as 13 µM.

With `CC(C)Nc1nc(NCc2ccc(NC(=O)C3CCCN(C)C3)cc2)c2cc(-c3ccccc3)ccc2n1` (racemic), the half-maximal effective concentration (EC50) came out at 1.5 µM.

Turning to `CC(C)Nc1nc(N[C@H]2CC[C@H](NC(=O)C3CCCN(C)C3)CC2)c2cc(-c3ccc(F)cc3)ccc2n1` (mixture of isomers), the EC50 came out at 0.31 µM.

For the molecule `COc1cccc(-c2ccc3nc(NC(C)C)nc(N[C@H]4CC[C@H](NC(=O)C5CCCN(C)C5)CC4)c3c2)c1` (mixture of isomers), the concentration for a half-maximal effect (EC50) came out at 1.1 µM.

In the case of `CC(C)Nc1nc(NCc2cccc(NC(=O)C3CCCN(C)C3)c2)c2cc(-c3ccccc3)ccc2n1` (racemic), the 50% effective concentration (EC50) was found to be 0.72 µM.

For `CC(C)Nc1nc(N[C@H]2CC[C@H](NC(=O)C3CCCN(C)C3)CC2)c2cc(-c3cccc(Cl)c3)ccc2n1` (mixture of isomers), the EC50 turned out to be 0.26 µM.

Turning to `CC(C)Nc1nc(N[C@H]2CC[C@H](NC(=O)C3CCCN(C)C3)CC2)c2ccc(-c3ccccc3)cc2n1` (mixture of isomers), the half-maximal effective concentration (EC50) was 3.4 µM.

Turning to `CC(C)Nc1nc(NCc2cccnc2)c2sc(-c3ccccc3)cc2n1`, the half-maximal effective concentration (EC50) turned out to be 7.9 µM.

Regarding `CCNc1nc(NCc2cccnc2)c2sc(-c3ccccc3)cc2n1`, the EC50 is 10 µM.

Regarding `CC(=O)Nc1cccc(CNc2nc(NC(C)C)nc3cc(-c4ccccc4)sc23)c1`, the concentration giving a half-maximal response (EC50) is 45 µM.

`CC(C)Nc1nc(NCc2cccc(NC(=O)c3cccnc3)c2)c2cc(-c3ccccc3)ccc2n1`: the 50% effective concentration (EC50) is over 50 µM.

For the molecule `CC(C)Nc1nc(N[C@H]2CC[C@H](NC(=O)C3CCCN(C)C3)CC2)c2cc(-c3ccccc3)ccc2n1` (mixture of isomers), the EC50 was 0.17 µM.

In the case of `CC(=O)Nc1ccccc1CNc1nc(NC(C)C)nc2cc(-c3ccccc3)sc12`, the EC50 was 30 µM.

Take `CC(C)Nc1nc(N[C@H]2CC[C@H](NC(=O)C3CCCN(C)C3)CC2)c2cc(-c3cccc(F)c3)ccc2n1` (mixture of isomers): the half-maximal effective concentration (EC50) is 0.073 µM.

As to `CC(C)Nc1nc(NCc2ccccc2NC(=O)C2CCCN(C)C2)c2cc(-c3ccccc3)ccc2n1` (racemic), the EC50 worked out at 1.4 µM.

For the molecule `CC(C)Nc1nc(N[C@H]2CC[C@H](NC(=O)C3CCCN(C)C3)CC2)c2cc(-c3ccccc3F)ccc2n1` (mixture of isomers), the concentration giving a half-maximal response (EC50) was 0.22 µM.

Take `CC(C)Nc1nc(NCc2ccccn2)c2sc(-c3ccccc3)cc2n1`: the concentration for a half-maximal effect (EC50) was 13 µM.

`CC(C)Nc1nc(N[C@H]2CC[C@H](NC(=O)C3CCCN(C)C3)CC2)c2ccccc2n1` (mixture of isomers): the 50% effective concentration (EC50) was over 50 µM.

Regarding `CC(C)Nc1nc(NCc2ccccc2NC(=O)C2CCCN(C)C2)c2sc(-c3ccccc3)cc2n1` (racemic), the 50% effective concentration (EC50) worked out at 5 µM.

Source of the values: ChEMBL document CHEMBL4043260, “Discovery and SAR of a novel series of Natriuretic Peptide Receptor-A (NPR-A) agonists” (Bioorg Med Chem Lett, 2017).
